Experiments:
Type in all cases: biochemical
human sdLDL [1] = experiment: Copper-induced sdLDL oxidation, TBARS after 2 hr (Example 6)
Experimental: (§1) Venous blood was collected from healthy volunteers into vacutainer tubes containing sodium EDTA. Plasma was separated by centrifugation at 3000 g for 25 min at 4° C. and adjusted to a density of 1.020 g/mL with KBr. Triglyceride-rich lipoproteins (TGRL) and LDL fractions were then isolated by sequential centrifugation at 70,000 rpm at 4° C. in a Beckman LE-80 ultracentrifuge using a Beckman 50.4Ti rotor (Beckman Coulter, Inc., Fullerton, Calif.). The TGRL fraction (with a relative density of <1.020) was aspirated from the top of the centrifugate and discarded, leaving an LDL-enriched infranate (with a relative density of 1.020 to 1.063). The plasma LDL fraction was further fractionated into LDL1, LDL2, LDL3, and LDL4 (sdLDL) subfractions with relative densities of 1.020 to 1.035, 1.035 to 1.050, 1.050 to 1.063, and 1.063 to 1.075, respectively. The sdLDL subfraction was retained for additional experimentation. Plasma and lipoprotein fractions were maintained at 4° C. and protected from excessive exposure to light. Prior to oxidation experiments, EDTA was removed from the lipoprotein fraction using PD-10 desalting columns (GE Healthcare, Piscataway N.J.). After equilibration of the column with phosphate buffered saline (PBS), 2.5 mL of the lipoprotein fraction was loaded on the column and the flow-through discarded. The lipoprotein was then eluted with 3 mL of PBS. The LDL fractions were further diluted with PBS to obtain a 100 μg/mL apoB100 concentration.
LDL and sdLDL subfractions (0.6 mL each) were incubated with either 10 μL vehicle (ethanol) or 10 μL drug stock solution for 30 min to 1 hr at 37° C. Oxidation was initiated by the addition of 10 μM CuSO4. After 2 hr, 100 μL aliquots were removed from each subfraction and combined with 1.0 mL thiobarbituric acid (0.5%), 10 μL trichloroacetic acid (5%), 10 μL BHT (5 mg/mL in methanol), and 10 μL EDTA (5 mM). […]. Sample TBARS concentrations were determined spectrophotometrically by measuring sample absorbances against a standard curve derived from the hydrolysis of 1,1,3,3-tetramethoxypropane.

human sdLDL [2] = experiment: Glucose-induced sdLDL oxidation, MDA/TBARS (Example 10); settings: glucose 200 mg/dL
Experimental: Vitamin E (α-tocopherol) purchased from Sigma-Aldrich was prepared in ethanol at 1.0 mM (ε=3.06×10^4M^−1 cm^−1 at 294 nm) prior to experimental use. Test compounds were further diluted in ethanol or aqueous buffer as needed. Phosphate Buffered Saline (PBS) purchased from Sigma-Aldrich was prepared in double distilled water at 10 mM (138 mM NaCl, 2.7 mM KCl, pH 7.4). Glucose prepared in PBS was added to test samples to achieve a final concentration of 11.0 mM (200 mg/dL).
LDL and sdLDL were isolated from the plasma of healthy volunteers by iodixanol density gradient ultracentrifugation and adjusted to a final apolipoprotein concentration of 10 mg/mL. […] Sample aliquots were incubated at 100° C. for 30 minutes and then assayed for the formation of thiobarbituric acid-reactive substances (TBARS), having a molar absorptivity (ε) value of 1.56×10^5 M^−1 cm^−1 at 532 nm and were derived principally from the reaction of thiobarbituric acid with malondialdehyde (MDA). Lipid oxidation was measured by the colorimetric detection of malondialdehyde (MDA), a marker of oxidative stress.

human LDL = experiment: Copper-induced oxidation of unfractionated LDL, TBARS after 2 hr (Example 6)
Experimental: as §1, with “Prior to oxidation experiments, EDTA was removed from the lipoprotein fraction using PD-10 desalting columns (GE Healthcare, Piscataway N.J.). After equilibration of the column with phosphate buffered saline (PBS), 2.5 mL of the lipoprotein fraction was loaded on the column and the flow-through discarded. The lipoprotein was then eluted with 3 mL of PBS. The LDL fractions were further diluted with PBS to obtain a 100 μg/mL apoB100 concentration.” left out
LDL and sdLDL subfractions (0.6 mL each) were incubated with either 10 μL vehicle (ethanol) or 10 μL drug stock solution for 30 min to 1 hr at 37° C. […] Sample TBARS concentrations were determined spectrophotometrically by measuring sample absorbances against a standard curve derived from the hydrolysis of 1,1,3,3-tetramethoxypropane.

[3] = Glucose-induced membrane lipid peroxidation (LOOH, CHOD-iodide assay) in DLPC/cholesterol vesicles (Examples 4, 5); settings: for effect on LOOH formation / lipid peroxidation / inhibition of the peroxidative effects of glucose (LOOH formation): 1:30 drug-to-phospholipid mole ratio; for effect on LOOH formation / lipid peroxidation: 72- and 96-hour time points
Experimental: All test compounds were further diluted in ethanol or aqueous buffer as needed. Glucose was prepared in saline buffer (0.5 mM HEPES, 154 mM NaCl, pH 7.3) at 11.0 mM (200 mg/dL). CHOD-iodide color reagent (stock) was prepared, with slight modification, as described by from El-Saadani et al. (J. […] Samples were shell-dried under nitrogen gas and placed under vacuum for 1 h to remove residual solvent. […] Lipid suspensions were then vortexed for 3 min at ambient temperature to form MLVs. All MLV samples were subjected to time-dependent autoxidation by incubating at 37° C. in an uncovered, shaking water bath. This method allows lipid peroxidation to occur gradually without requiring the use of exogenous initiators. Small aliquots (5-100 μL) of each sample were removed, immediately following MLV preparation (0 hour) and after exposing samples to oxidative conditions for 72 or 96 hour, and combined with 1.0 mL of activated CHOD-iodide color reagent. Aliquot volume was reduced with each successive time point to ensure that spectrophotometric readings were within the optimal adsorption range. Test samples were covered and incubated in darkness at room temperature for at least 4 hr. Sample absorbances were then measured against a CHOD blank at 365 nm using a Beckman DU-640 spectrophotometer. The CHOD colorimetric assay is based on the oxidation of iodide (I^−) by lipid hydroperoxide (LOOH) to form triiodide the quantity of which is directly proportional to the amount of LOOH present in the lipid sample. The molar absorptivity (ε) of I3^− is 2.46×10^4 M^−1 cm^−1 at 365 nm. […] All MLV samples were subjected to time-dependent autoxidation by incubating at 37° C. in an uncovered, shaking water bath. This method allows lipid peroxidation to occur gradually without requiring the use of exogenous initiators. Small aliquots (5-100 μL) of each sample were removed, immediately following MLV preparation (0 hr) and after exposing samples to oxidative conditions for 72 or 96 hr, and combined with 1.0 mL of activated CHOD-iodide color reagent. Aliquot volume was reduced with each successive time point to ensure that spectrophotometric readings were within the optimal adsorption range. Test samples were covered and incubated in darkness at room temperature for at least 4 hr. Sample absorbances were then measured against a CHOD blank at 365 nm using a Beckman DU-640 spectrophotometer. […] The molar absorptivity (ε) of I3^− is 2.46×10^4 M^−1 cm^−1 at 365 nm.

IC50 (human sdLDL [2])	SMILES	reduction of TBARS levels compared to vehicle-treated controls (human sdLDL [1]; 10.0 μM)	effect on sdLDL oxidation (human sdLDL [1]; concentrations 1.0 μM to 10.0 μM)	effect on glucose-induced sdLDL oxidation (human sdLDL [2]; 10 μM, 1 hr)	increase of sdLDL oxidation compared to glucose-treated controls (human sdLDL [2]; 10 μM, 1 hr)	effect on LDL oxidation (human LDL; 1.0 μM to 10.0 μM, data not shown)	effect on LOOH formation / lipid peroxidation ([3]; glucose)	reduction of TBARS levels compared to vehicle-treated controls (human sdLDL [1]; lowest dose tested (1.0))	inhibition of sdLDL oxidation compared to vehicle controls (human sdLDL [2]; 10.0 μM)	sdLDL oxidation (formation of MDA) (human sdLDL [2]; 10.0 μM)	reduction of TBARS levels (human LDL; highest concentration tested (10.0), unfractionated LDL)	antioxidant effect (LOOH formation) ([3]; 1.0 μM, glucose 200 mg/dL, 96 hours)	inhibition of the peroxidative effects of glucose (LOOH formation) ([3]; glucose 200 mg/dL, 72 hours)	inhibition of the peroxidative effects of glucose (LOOH formation) ([3]; glucose 200 mg/dL, 96 hours)	effect on membrane LOOH formation ([3]; EPA at 1.0 and 5.0 μM, glucose)	LOOH formation compared to vehicle, glucose only, glucose and EA, glucose and ETE ([3]; Example 5, model membranes treated with glucose)
	Cc1c(C)c2c(c(C)c1O)CC[C@@](C)(CCC[C@H](C)CCC[C@H](C)CCCC(C)C)O2 [vitamin E, α-tocopherol, reference compound]	26%	did not inhibit sdLDL oxidation except at the highest concentration	failed to inhibit sdLDL oxidation	63%	did not inhibit LDL oxidation at any concentration	no significant effect on lipid peroxidation									
< 1000 nM	CC/C=C\C/C=C\C/C=C\C/C=C\C/C=C\CCCC(=O)O [EPA, cis-5,8,11,14,17-eicosapentaenoic acid]	57%					significantly inhibited LOOH formation	13%	94%	0.2 ± 0.1 µM	17%	separate and potent antioxidant effects	88%	86%	inhibit membrane LOOH formation in a dose-dependent manner	significantly less LOOH formation
